From US20230183193A1, “4-DIFLUOROMETHYL BENZOYL AMIDES WITH HERBICIDAL ACTION” (BAYER CROPSCIENCE AKTIENGESELLSCHAFT, priority 2017, published 2023)

Experiments:
Assay type in all cases: in vivo
Amaranthus retroflexus [1] = experiment: Post-emergence herbicidal action, AMARE; conditions: 80 g/ha, Table D
Outline: (§1)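 Visual percent activity relative to untreated controls, assessed about 3 weeks after foliar treatment, where 0% equals control growth and 100% equals death. Compounds, as wettable powders or emulsion concentrates, are sprayed onto one-leaf-stage plants in sandy loam.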

Amaranthus retroflexus [2] = experiment: Pre-emergence herbicidal action, AMARE; conditions: dosage 320 g/ha, scored visually after 3 weeks vs untreated controls
Outline: (§2)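 Percent herbicidal activity rated by eye 3 weeks after pre-emergence soil-surface application, compared with untreated pots. Seeds sat under sandy loam; sprays carried 0.2% wetting agent.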

ECHCG = experiment: Post-emergence herbicidal action, ECHCG; conditions: 80 g/ha, Table C
Outline: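 Weed and crop plants grown in sandy loam in the greenhouse, treated at the one-leaf stage 2–3 weeks after sowing. Damage scored visually after about 3 weeks vs untreated controls (0% = control, 100% = dead).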

Abutilon theophrasti [3] = experiment: Post-emergence herbicidal action, ABUTH; conditions: 80 g/ha, Table D
Outline: as §1

Stellaria media [4] = experiment: Pre-emergence herbicidal action, STEME; conditions: dosage 320 g/ha, scored visually after 3 weeks vs untreated controls
Outline: as §2

Stellaria media [5] = experiment: Post-emergence herbicidal action, STEME; conditions: 80 g/ha, Table D
Outline: as §1

Abutilon theophrasti [6] = experiment: Pre-emergence herbicidal action, ABUTH; conditions: dosage 320 g/ha, scored visually after 3 weeks vs untreated controls
Outline: as §2

Viola tricolor [7] = experiment: Pre-emergence herbicidal action, VIOTR; conditions: dosage 320 g/ha, scored visually after 3 weeks vs untreated controls
Outline: as §2

Setaria viridis [8] = experiment: Pre-emergence herbicidal action, SETVI; conditions: dosage 320 g/ha, scored visually after 3 weeks vs untreated controls
Outline: as §2

Cyperus serotinus = experiment: Pre-emergence herbicidal action, CYPES; conditions: dosage 320 g/ha, scored visually after 3 weeks vs untreated controls
Outline: as §2

Matricaria inodora = experiment: Pre-emergence herbicidal action, MATIN; conditions: dosage 320 g/ha, scored visually after 3 weeks vs untreated controls
Outline: as §2

Alopecurus myosuroides [9] = experiment: Post-emergence herbicidal action, ALOMY; conditions: 80 g/ha, Table C
Outline: as §1

Pharbitis purpureum = experiment: Post-emergence herbicidal action, PHBPU; conditions: 80 g/ha, Table D
Outline: as §1

Alopecurus myosuroides [10] = experiment: Pre-emergence herbicidal action, ALOMY; conditions: dosage 320 g/ha, scored visually after 3 weeks vs untreated controls
Outline: as §2

Viola tricolor [11] = experiment: Post-emergence herbicidal action, VIOTR; conditions: 80 g/ha, Table D
Outline: as §1

Setaria viridis [12] = experiment: Post-emergence herbicidal action, SETVI; conditions: 80 g/ha, Table C
Outline: as §1

Avena fatua [13] = experiment: Pre-emergence herbicidal action, AVEFA; conditions: dosage 320 g/ha, scored visually after 3 weeks vs untreated controls
Outline: as §2

Avena fatua [14] = experiment: Post-emergence herbicidal action, AVEFA; conditions: 80 g/ha, Table C
Outline: as §1

SMILES | herbicidal activity AMARE (Amaranthus retroflexus [1]) [%] | herbicidal activity AMARE (Amaranthus retroflexus [2]) [%] | Herbicidal activity ECHCG (ECHCG) [%] | herbicidal activity ABUTH (Abutilon theophrasti [3]) [%] | Herbicidal activity STEME (Stellaria media [4]) [%] | Herbicidal activity STEME (Stellaria media [5]) [%] | herbicidal activity ABUTH (Abutilon theophrasti [6]) [%] | herbicidal activity VIOTR (Viola tricolor [7]) [%] | herbicidal activity SETVI (Setaria viridis [8]) [%] | herbicidal activity CYPES (Cyperus serotinus) [%] | herbicidal activity MATIN (Matricaria inodora) [%] | herbicidal activity ALOMY (Alopecurus myosuroides [9]) [%] | Herbicidal activity PHBPU (Pharbitis purpureum) [%] | herbicidal activity ALOMY (Alopecurus myosuroides [10]) [%] | herbicidal activity VIOTR (Viola tricolor [11]) [%] | herbicidal activity SETVI (Setaria viridis [12]) [%] | herbicidal activity AVEFA (Avena fatua [13]) [%] | herbicidal activity AVEFA (Avena fatua [14]) [%]
CC[S+]([O-])c1c(C(F)F)ccc(C(=O)Nc2nnnn2C)c1Cl (stereo not drawn) [Example 1-53] | 100 | 100 | 90 | 100 | 100 | 100 | 100 | 100 | 100 | 100 | 100 | 100 | 100 | 100 | 100 | 100 | 100 | 100
CCS(=O)(=O)c1c(C(F)F)ccc(C(=O)Nc2nnnn2C)c1Cl [Example 1-54] | 100 | 100 | 90 | 100 | 100 | 100 | 100 | 100 | 100 | 100 | 100 | 90 | 100 | 100 | 100 | 100 | 100 | 100
CSc1c(C(F)F)ccc(C(=O)Nc2nnnn2C)c1Br [Example 1-61] | 90 | 100 | 90 | 100 | 100 | 100 | 100 | 100 | 100 | 100 | 100 | 90 | 100 | 100 | 100 | 90 | 100 | 100
Cn1nnnc1NC(=O)c1ccc(C(F)F)c([S+](C)[O-])c1Br (stereo not drawn) [Example 1-62] | 100 | 100 | 100 | 100 | 100 | 100 | 100 | 100 | 100 | 100 | 100 | 100 | 100 | 100 | 100 | 100 | 100 | 100
Cn1nnnc1NC(=O)c1ccc(C(F)F)c(S(C)(=O)=O)c1Br [Example 1-63] | 100 | 100 | 90 | 100 | 100 | 100 | 100 | 100 | 100 | 100 | 100 | 90 | 100 | 100 | 100 | 100 | 100 | 100
CCSc1c(C(F)F)ccc(C(=O)Nc2nnnn2C)c1Br [Example 1-64] | 100 | 100 | 90 | 100 | 100 | 100 | 100 | 100 | 100 | 100 | 100 | 90 | 100 | 100 | 100 | 90 | 100 | 100
